Measured values from patent US4740601A, “Imidazole derivatives having antimicrobial activities” (SS Pharmaceutical Co., Ltd., priority 1985, dated 1988).
Values after ≈ are worked out from the molar mass of the structure shown. Like-named read-outs stand apart in the source and are kept apart here.

Assays:
Format in all cases: cell-based
[1] = system: Bacillus subtilis ATCC 6633; assay: antimicrobial activity, MIC
[2] = system: Staphylococcus aureus FDA 209P; assay: antimicrobial activity, MIC
[3] = system: Staphylococcus aureus Terajima; assay: antimicrobial activity, MIC
[4] = system: Staphylococcus aureus Smith; assay: antimicrobial activity, MIC
[5] = system: Staphylococcus epidermidis ATCC 12228; assay: antimicrobial activity, MIC
[6] = system: Sarcina lutea ATCC 9341; assay: antimicrobial activity, MIC
[7] = system: Streptococcus faecalis IFO 12964; assay: antimicrobial activity, MIC
[8] = system: Micrococcus lysodeixticus IFO 3333; assay: antimicrobial activity, MIC
[9] = system: Candida albicans NHL 4019; assay: antimicrobial activity, MIC
[10] = system: Candida albicans Yu-1200; assay: antimicrobial activity, MIC
[11] = system: Saccharomyces cerevisiae ATCC 9763; assay: antimicrobial activity, MIC
[12] = system: Saccharomyces ruxii 6507; assay: antimicrobial activity, MIC
[13] = system: Aspergillus niger ATCC 9642; assay: antimicrobial activity, MIC
[14] = system: Penicillium chrysogenum ATCC 6010; assay: antimicrobial activity, MIC
[15] = system: Trichophyton mentagrophytes QM 248; assay: antimicrobial activity, MIC
[16] = system: Trichophyton mentagrophytes IFO 5812; assay: antimicrobial activity, MIC; settings: Trichophyton mentagrophytes IFO 5812
[17] = system: Trichophyton tonsurans IFO 5928; assay: antimicrobial activity, MIC
[18] = system: Trichophyton rubrum NHL J; assay: antimicrobial activity, MIC
[19] = system: Microsporum gypseum IFO 8231; assay: antimicrobial activity, MIC
[20] = system: Microsporum audounii IFO 6074; assay: antimicrobial activity, MIC
[21] = system: Microsporum cookei IFO 8303; assay: antimicrobial activity, MIC
[22] = system: Epidermophyton floccosum IFO 9045; assay: antimicrobial activity, MIC
[23] = system: Aspergillus oryzae IMF 4014; assay: antimicrobial activity, MIC
[24] = system: Cladosporium fulvum IAM 5006; assay: antimicrobial activity, MIC
[25] = system: Fusarium moniliforme IAM 5062; assay: antimicrobial activity, MIC
[26] = system: Helminthosporium sesamum IAM 5012; assay: antimicrobial activity, MIC
[27] = system: Pyricularia oryzae IAM 5016; assay: microbe, parasite or virus in culture
[28] = system: Debaryomyces kloeckeri IFO 0015; assay: antimicrobial activity, MIC
[29] = system: Gibberella fujikuroi IAM 8046; assay: antimicrobial activity, MIC
[30] = Staphylococcus aureus, read-out: MIC

CCCOc1ccccc1C(=CSc1ccccc1)n1ccnc1 (single isomer, unassigned) [Compound 65]
MIC ([1]; Bacillus subtilis ATCC 6633): 3.12 µg/mL (≈ 9.27 µM)
MIC [2]: 12.5 µg/mL (≈ 37.2 µM)
MIC [3]: 6.25 µg/mL (≈ 18.6 µM)
MIC [4]: 6.25 µg/mL (≈ 18.6 µM)
MIC ([5]; Staphylococcus epidermidis ATCC 12228): 6.25 µg/mL (≈ 18.6 µM)
MIC ([6]; Sarcina lutea ATCC 9341): 3.12 µg/mL (≈ 9.27 µM)
MIC ([7]; Streptococcus faecalis IFO 12964): 12.5 µg/mL (≈ 37.2 µM)
MIC ([8]; Micrococcus lysodeixticus IFO 3333): 1.56 µg/mL (≈ 4.64 µM)
MIC ([9]; Candida albicans NHL 4019): > 100 µg/mL
MIC [10]: > 100 µg/mL
MIC ([11]; Saccharomyces cerevisiae ATCC 9763): 25 µg/mL (≈ 74.3 µM)
MIC ([12]; Saccharomyces ruxii 6507, read-out: MIC): 6.25 µg/mL (≈ 18.6 µM)
MIC ([13]; Aspergillus niger ATCC 9642): > 100 µg/mL
MIC ([14]; Penicillium chrysogenum ATCC 6010): > 100 µg/mL
MIC ([15]; Trichophyton mentagrophytes QM 248): 12.5 µg/mL (≈ 37.2 µM)
MIC [16]: 3.12 µg/mL (≈ 9.27 µM)
MIC ([17]; Trichophyton tonsurans IFO 5928): 12.5 µg/mL (≈ 37.2 µM)
MIC ([18]; Trichophyton rubrum NHL J): 3.12 µg/mL (≈ 9.27 µM)
MIC ([19]; Microsporum gypseum IFO 8231): 12.5 µg/mL (≈ 37.2 µM)
MIC ([20]; Microsporum audounii IFO 6074): 6.25 µg/mL (≈ 18.6 µM)
MIC ([21]; Microsporum cookei IFO 8303): 100 µg/mL (≈ 297 µM)
MIC ([22]; Epidermophyton floccosum IFO 9045): 100 µg/mL (≈ 297 µM)
MIC ([23]; Aspergillus oryzae IMF 4014): > 100 µg/mL
MIC ([24]; Cladosporium fulvum IAM 5006): > 100 µg/mL
MIC ([25]; Fusarium moniliforme IAM 5062): > 100 µg/mL
MIC ([26]; Helminthosporium sesamum IAM 5012): 100 µg/mL (≈ 297 µM)
MIC ([27]; Pyricularia oryzae IAM 5016): 1.56 µg/mL (≈ 4.64 µM)
MIC [28]: > 100 µg/mL
MIC ([29]; Gibberella fujikuroi IAM 8046): > 100 µg/mL

CCCCCCOc1ccccc1C(=COC)n1ccnc1 (single isomer, unassigned) [Compound 73]
MIC ([1]; Bacillus subtilis, ATCC6633, Bacillus subtilis ATCC 6633, read-out: MIC): 6.25 µg/mL (≈ 20.8 µM)
MIC ([2]; Staphylococcus aureus, FDA209P, read-out: MIC): 12.5 µg/mL (≈ 41.6 µM)
MIC [3, 30]: 6.25 µg/mL (≈ 20.8 µM)
MIC [4, 30]: 12.5 µg/mL (≈ 41.6 µM)
MIC ([5]; Staphylococcus epidermidis, ATCC12228, Staphylococcus epidermidis ATCC 12228, read-out: MIC): 6.25 µg/mL (≈ 20.8 µM)
MIC ([6]; Micrococcus luteus, ATCC9341, Sarcina lutea ATCC 9341, read-out: MIC): 6.25 µg/mL (≈ 20.8 µM)
MIC ([7]; Enterococcus faecalis, IFO12964, Streptococcus faecalis IFO 12964, read-out: MIC): 12.5 µg/mL (≈ 41.6 µM)
MIC ([8]; Micrococcus, IFO3333, Micrococcus lysodeixticus IFO 3333, read-out: MIC): 3.12 µg/mL (≈ 10.4 µM)
MIC ([9]; Candida albicans, NHL4019, Candida albicans NHL 4019, read-out: MIC): 50 µg/mL (≈ 166 µM)
MIC ([10]; YU1200, read-out: MIC): 50 µg/mL (≈ 166 µM)
MIC ([11]; Saccharomyces cerevisiae, ATCC9763, Saccharomyces cerevisiae ATCC 9763, read-out: MIC): 50 µg/mL (≈ 166 µM)
MIC ([12]; Saccharomyces, 6507, Saccharomyces ruxii 6507): 1.56 µg/mL (≈ 5.19 µM)
MIC ([13]; Aspergillus niger, ATCC9642, Aspergillus niger ATCC 9642, read-out: MIC): 12.5 µg/mL (≈ 41.6 µM)
MIC ([14]; Penicillium chrysogenum, ATCC6010, Penicillium chrysogenum ATCC 6010, read-out: MIC): 6.25 µg/mL (≈ 20.8 µM)
MIC ([15]; Trichophyton mentagrophytes, QM248, Trichophyton mentagrophytes QM 248, read-out: MIC): 3.12 µg/mL (≈ 10.4 µM)
MIC [16]: 1.56 µg/mL (≈ 5.19 µM)
MIC ([17]; Trichophyton tonsurans, IFO5928, Trichophyton tonsurans IFO 5928, read-out: MIC): 3.12 µg/mL (≈ 10.4 µM)
MIC ([18]; Trichophyton rubrum): 1.56 µg/mL (≈ 5.19 µM)
MIC ([19]; Nannizzia gypsea, IFO8231, Microsporum gypseum IFO 8231, read-out: MIC): 3.12 µg/mL (≈ 10.4 µM)
MIC ([20]; Microsporum, IFO6074, Microsporum audounii IFO 6074, read-out: MIC): 0.78 µg/mL (≈ 2.6 µM)
MIC ([21]; Paraphyton cookei, IFO8303, Microsporum cookei IFO 8303, read-out: MIC): 6.25 µg/mL (≈ 20.8 µM)
MIC ([22]; Epidermophyton floccosum, IFO9045, Epidermophyton floccosum IFO 9045, read-out: MIC): 6.25 µg/mL (≈ 20.8 µM)
MIC ([23]; Aspergillus oryzae, IMF4014, Aspergillus oryzae IMF 4014, read-out: MIC): 6.25 µg/mL (≈ 20.8 µM)
MIC ([24]; Fulvia fulva, IAM5006, Cladosporium fulvum IAM 5006, read-out: MIC): 6.25 µg/mL (≈ 20.8 µM)
MIC ([25]; Fusarium verticillioides, IAM5062, Fusarium moniliforme IAM 5062, read-out: MIC): 12.5 µg/mL (≈ 41.6 µM)
MIC ([26]; Helminthosporium, IAM5012, Helminthosporium sesamum IAM 5012, read-out: MIC): 6.25 µg/mL (≈ 20.8 µM)
MIC ([27]; Pyricularia oryzae, IAM5016, Pyricularia oryzae IAM 5016): 1.56 µg/mL (≈ 5.19 µM)
MIC ([28]; IFO0015, read-out: MIC): 3.12 µg/mL (≈ 10.4 µM)
MIC ([29]; Fusarium fujikuroi, IAM8046, Gibberella fujikuroi IAM 8046, read-out: MIC): 6.25 µg/mL (≈ 20.8 µM)
